Measured values taken from US3954793A, “1-(2-Propynyl)-1 H-indazole compounds” (priority 1973, dated 1976).
Like-named read-outs stand apart in the source and are kept apart here.

Experiments:
[1] = system: Wilson strain house flies; assay type: in vivo, Wilson strain (susceptible); conditions: for Contact Synergistic Ratio, Pyrolan: LC50 pyrolan alone / LC50 with synergist
Procedure: The required solutions of the insecticide and of the synergist compound were prepared in acetone at a concentration of 1 milligram per milliliter. One-pint wide mouth glass jars were coated with the appropriate insecticide-synergist combination by rolling the jars containing aliquots of the appropriate solutions diluted to three milliliters with acetone to deposit, by evaporation, a film of the test materials. The flies were transferred under carbon dioxide anesthesia and held in the jar at room temperature. Perforated aluminum foil was used to cover the jars and to hold cotton saturated with 10% sugar solution. Counts were made at intervals, but the recorded mortality was based on 24-hour kill, rather than knockdown. All prostrate non-moving flies were considered dead. A determination was then made of the contact synergistic ratio [SR], which is the ratio of the LC50 of insecticide alone to the LC50 of the insecticide when applied together with the synergist. The LC50 of the insecticide was estimated from a log-probit plot of percent kill versus dosage. […] The LC50 of the combination of insecticide and synergist was determined at a synergist to insecticide parts by weight ratio of five to one.

male mice = test: extension of sleeping time of depressant drugs by synergists; assay type: in vivo, male mice (Swiss albino white); conditions: for Mean Sleeping Time, Noludar / Relative Sleeping Time, Noludar: Noludar 110 mg/kg; for Relative Sleeping Time, Noludar / Relative Sleeping Time, Secobarbital: treated/control; for Mean Sleeping Time, Secobarbital / Relative Sleeping Time, Secobarbital: Secobarbital 37 mg/kg
Procedure: The selectivity of the synergist compounds of this invention is illustrated by the results of sleeping-time extension tests and of acute toxicity tests on Swiss albino white male mice.
The effect of various synergist compounds on sleeping time of sodium secobarbital [Secobarbital] and of 3,3-diethyl-5-methyl-2,4-dioxypiperidine [Noludar] was determined by administering the drug, with and without synergist, to approximately 38-day old male mice weighing from 25 to 30 grams. Synergists were administered in each of two doses, 74.0 mg/kg (dilution being 2.0 mg/0.1 ml corn oil), and 110.0 mg/kg (dilution 3.0 mg/0.1 ml oil). Secobarbital was administered at a dose of 37.0 mg/kg (dilution 1.0 mg/0.1 ml water). Noludar was administered at a dose of 110.0 mg/kg (dilution 3.0 mg/0.1 ml water). The synergist was administered one hour prior to administration of the Secobarbital or Noludar. Secobarbital and Noludar sleeping times were obtained for both the control (drug only) and the treated (synergist plus drug) mice by noting the time lapse between the administration of the drug and the recovery of the righting reflex, i.e. when the animal regains conciousness and can walk up an inclined wooden tray with coordination. The relative sleeping time (R.S.) was noted. The R.S. is the extended sleeping time in the treated mice (synergist plus drug) divided by the sleeping time in the control mice (drug only). The mean sleeping time for the treated mice and the R.S. are shown on Table XXXXIV for various synergist compounds.

[2] = system: Swiss albino, white male mice; test: acute toxicity and synergism of acute toxicity in mice; assay type: in vivo; conditions: 48 hours, eight mice
Procedure: To determine the acute toxicity of dimetilan alone, eight dosage levels of Dimetilan, ranging from 4 to 32 mg per kg were applied to eight, Swiss, albino, white, male mice per dosage level. The mice weighed approximately 23 to 27 grams and were five to six weeks old. The Dimetilan was administered intraperitoneally in 0.1 ml of corn oil one hour after the administration of the same dose of corn oil alone.
To determine the acute toxicity of the synergist alone, various synergists were administered intraperitoneally at a dose of 1000 mg/kg to each of a group of eight mice. The number of animals dead at the end of 72 hours is reported in the left hand column of Table XXXXVI.
The synergism of the acute toxicity of Dimetilan by various synergists was determined by tests on Swiss albino, white male mice aged five to six weeks and weighing 23 to 27 grams. The synergists and insecticides were dissolved in corn oil and the drugs were dissolved in distilled water. All compounds were administered intraperitoneally by injection in the lower quadrent of the abdomen. The synergist was administered in 0.1 ml of corn oil one hour prior to administration of the insecticide. Eight mice were treated, per dosage, with each synergist. The mice were watched for a minimum of 6 hours while held in a glass jar with bedding individually after intraperitoneal injection of the test solutions. Lethality was noted, the animals were weighed and transferred in cages, and food and water were supplied. Control mice were given 0.1 ml of corn oil at the time of administration of the synergist to the test mice and 0.1 ml corn oil plus Dimetilan at the time of administration of the insecticide to the test mice.
By the same procedure, the synergism of acute toxicity of GS 13005, Secobarbital and 6-dimethylamino-4,4-diphenyl-3-heptanone [Methadone] was determined.

[3] = system: Rutgers A strain house flies; test: topical application, percent kill after 24 hours, resistant Rutgers A strain; assay type: in vivo, female); conditions: for percent kill after 24 hours, with GS 13005: GS 13005 1.0 + synergist 5.0 μg/fly; for percent kill after 24 hours, synergist alone: insecticide 0, synergist 5.0 μg/fly
Procedure: (§1) In Table IX, and in the tables following it, the doses of topically applied insecticides and of synergists unless otherwise noted are expressed as micrograms per fly (μg/fly).
(§2) The synergistic effect of O-(2-propynyl) oximes with mobam was determined from topical application tests on susceptible, female, IN/WHO strain house flies and from tests on resistant, female, Rutgers A strain house flies. The synergist and insecticide were dissolved in ACS Grade acetone in such quantities that a 1.0 μ liter volume applied to the thorax of 3-to-5 day old CO2 -anesthetized female adult house flies contained the desired dosage. After being treated, the flies were confined, 10 to a plaster petri dish, with 3-5 dishes/treament, and held for 24-hr. observation of mortality. Reconstituted skim milk on cotton dental wicks was provided during the holding period. The percent kills after 24 hours are shown in Table X for the IN/WHO strain and Table XI for the Rutgers A strain.
(§3) The synergistic effect of benzyl 2-propynyl ethers with mobam was determined from topical application tests on IN/WHO and Rutgers A strain houseflies, following the procedure of Example 5. The percent kills after 24 hours are shown in Table XIV for the IN/WHO strain and in Table XV for the Rutgers A strain.
The synergistic effect with Diazinon of compounds I-B, I-D, I-F, I-G, I-H and I-I, identified in Tables I and Ia, was determined from topical application tests on IN/WHO strain houseflies and on Rutgers A strain houseflies by the procedure of Example 5. The percent kills after 24 hours are shown in Table XXV for the IN/WHO strain and Table XXVI for the Rutgers A strain.
(§4) The synergistic effect with GS 13005 of compounds I-A, I-B, I-D, I-E, I-F, I-G and I-I was determined from topical application tests to IN/WHO strain, Rutgers A strain and polyvalent CH strain houseflies using the procedures of Example 5. The percent kills of the IN/WHO strain flies after 24 hours are shown in Table XXVIII; of the Rutgers A strain, in Table XXIX; and of the polyvalent CH strain, in Table XXX. The doses of insecticide alone to the CH strain files caused 10-40% mortality.
(§5) The synergistic effect with Diazinon and GS 13005 of various of the benzyl 2-propynyl ethers identified in Tables II and IIa was determined by topical application tests on IN/WHO strain, and Rutgers A strain and polyvalent, resistant, CH strain houseflies using the procedures of Example 5. The percent kills after 24 hours of IN/WHO strain flies are shown in Table XXXI; of Rutgers A strain flies, in Table XXXII; and of CH strain flies, in Table XXXIII. The doses of insecticide alone to the CH strain flies caused 10-40% mortality.
(§6) The synergistic effect on IN/WHO strain flies and Rutgers A strain flies of compound IV-C with GS 13005 and with Diazinon was determined by the topical application procedure of Example 5. The percent kills of IN/WHO strain flies after 24 hours are shown in Tables XXXVI and XXXVII; the percent kills of Rutgers A strain flies are shown in Tables XXXVIII and XXXIX.

[4] = system: IN/WHO strain house flies; test: topical application, percent kill after 24 hours, susceptible IN/WHO strain; assay type: in vivo, female); conditions: for percent kill after 24 hours, synergist alone (GS 13005 part of Table XXXI): GS 13005 0, synergist 1 μg/fly; for percent kill after 24 hours, with GS 13005: GS 13005 0.10 + synergist 0.50 μg/fly; for percent kill after 24 hours, with Mobam: Mobam 0.20 + synergist 1 μg/fly; for percent kill after 24 hours, synergist alone: insecticide 0, synergist 1 μg/fly
Procedure: as §1, §2, §3
The effects of varying the insecticide dose and the synergist-insecticide ratio are further illustrated, with synergist compounds II-D, II-E, II-F and Mobam insecticide, in Tables XVI, XVII and XVIII. […]
The effect on IN/WHO flies of synergist compound IV-C, identified in Table IV, with mobam was determined by the topical application procedure of Example 5. […]
as §4
as §5, with “mortality. […]” for “mortality.”
as §6

[5] = synergist to insecticide 5:1 by weight
[6] = synergist 110 mg/kg one hour prior
[7] = synergist 74 mg/kg one hour prior
[8] = Dimetilan 8 + synergist 240 mg/kg i.p.
[9] = Dimetilan 8 + synergist 80 mg/kg i.p.

| Compound | Contact Synergistic Ratio, Pyrolan [1, 5] | Contact Synergistic Ratio, Carbaryl ([1]; in vivo) | Mean Sleeping Time, Noludar (male mice; [6]) [min] | Relative Sleeping Time, Noludar (male mice; synergist 110 mg/kg) | Mean Sleeping Time, Secobarbital (male mice; [6]) [min] | Relative Sleeping Time, Secobarbital (male mice; synergist 110 mg/kg) | number of mice dead, with Dimetilan [2, 8] | also measured |
| --- | --- | --- | --- | --- | --- | --- | --- | --- |
| C#CCON=Cc1ccc(N(C)C)cc1 [I-C] | 20 | 200 | 34 | 1.0 | 108 | 1.8 | 0 | Mean Sleeping Time, Secobarbital (male mice; [7]): 30 min; Relative Sleeping Time, Secobarbital (male mice; synergist 74 mg/kg): 1.1 |
| C#CCOCc1ccc(Cl)cc1 [II-A] | 7 | 50 |  |  |  |  |  |  |
| C#CCOCc1ccc(Cl)cc1Cl [II-B] | 15 | 50 |  |  |  |  |  |  |
| C#CCOCc1ccc2c(c1)OCO2 [II-G] | 15 |  |  |  |  |  |  | Contact Synergistic Ratio, Carbaryl ([1]; LC50 carbaryl alone / LC50 with synergist, synergist to insecticide 5:1 by weight): 100 |
| C#CCOCc1ccc(Cl)c([N+](=O)[O-])c1 [II-M] |  |  | 47 | 2.1 | 47 | 2 | 3 | percent kill after 24 hours, with GS 13005 [3]: 63%; percent kill after 24 hours, synergist alone [3]: 0%; percent kill after 24 hours, synergist alone (GS 13005 part of Table XXXI) [4]: 10%; percent kill after 24 hours, with GS 13005 [4]: 79%; percent kill after 24 hours, with Mobam [4]: 90%; percent kill after 24 hours, synergist alone [4]: 10%; Mean Sleeping Time, Secobarbital (male mice; [7]): 29 min; Relative Sleeping Time, Secobarbital (male mice; synergist 74 mg/kg): 1.0; number of mice dead, with Dimetilan [2, 9]: 0 |
| C#CCOCc1ccc([N+](=O)[O-])cc1Cl [II-N] |  |  | 58 | 1.9 | 39 | 1.7 | 4 | percent kill after 24 hours, with GS 13005 [3]: 60%; percent kill after 24 hours, with GS 13005 [4]: 84%; percent kill after 24 hours, with Mobam [4]: 97%; Mean Sleeping Time, Secobarbital (male mice; [7]): 20 min; Relative Sleeping Time, Secobarbital (male mice; synergist 74 mg/kg): 1.0; number of mice dead, with Dimetilan [2, 9]: 0 |
| C#CCOCc1ccc([N+](=O)[O-])c(Cl)c1 [II-O] |  |  | 52 | 2.4 | 26 | 1.1 | 2 | percent kill after 24 hours, with GS 13005 [3]: 47%; percent kill after 24 hours, synergist alone [3]: 3%; percent kill after 24 hours, synergist alone (GS 13005 part of Table XXXI) [4]: 10%; percent kill after 24 hours, with GS 13005 [4]: 90%; percent kill after 24 hours, with Mobam [4]: 60%; percent kill after 24 hours, synergist alone [4]: 10%; number of mice dead, with Dimetilan [2, 9]: 0 |
| C#CCn1ncc2cc([N+](=O)[O-])ccc21 [III-A] | 30 | 143 | 32 | 1.0 | 50 | 1.1 | 0 |  |
| C#CCn1nc(Cl)c2ccccc21 [III-B] | 30 | 117 | 46 | 1.0 | 66 | 1.3 | 0 |  |
| C#CCn1nc(Cl)c2ccc([N+](=O)[O-])cc21 [III-C, N-(2-propynyl)-3-chloro-6-nitroindazole] | 10 | 53 |  |  |  |  |  |  |
| C#CCOC(c1cccc2ccccc12)C(C)[N+](=O)[O-] (stereo not drawn) [IV-B, 2-propynyl 1-naphthyl-2-nitropropyl ether] | 10 | 50 |  |  |  |  |  |  |
| Cc1cc(OC(=O)N(C)C)n(-c2ccccc2)n1 [Pyrolan, 3-methyl-1-phenyl-5-pyrazolyl-N-dimethylcarbamate, reference compound] |  |  |  |  |  |  |  | LC50 of insecticide alone ([1]; Wilson strain fly, 24-hour kill, no synergist): 0.15 mg/jar; 24 hour percent mortality, Pyrolan alone ([4]; Pyrolan 0.63 μg/fly): 0% |
